What was measured:
BT-474 cells = assay: Cell proliferation assay Method A (ATPlite), BT-474; type: cell-based; conditions: Homo sapiens, 72 hours, read-out: antiproliferative activity IC50, BT-474
Procedure: (§1) Cancer cell lines were plated at 5,000 to 10,000 per well in 96-well flat bottomed plates with various concentration of compounds. The cells were incubated with compounds for 72 hours in the presence of 0.5% of fetal bovine serum. Growth inhibition was accessed by adenosine triphosphate (ATP) content assay using Perkin Elmer ATPlite kit. ATPlite is an ATP monitoring system based on firefly luciferase. Briefly, 25 μl of mammalian cell lysis solution was added to 50 μl of phenol red-free culture medium per well to lyse the cells and stabilize the ATP. 25 μl of substrate solution was then added to the well and subsequently the luminescence was measured.

PI3Kβ (p110β/p85α) = target: T1, PI3Kβ (p110β/p85α) (Homo sapiens, UniProt P42338); assay: PI3Kβ TR-FRET (HTRF) assay; type: biochemical; conditions: 10 μM ATP
T1 construct: N-terminal histidine-tagged recombinant full-length human p110β; His tag (N); made in house; host or cells: Baculovirus-infected Sf21 insect cells
Procedure: Activity of PI3Kβ was measured using time-resolved fluorescence resonance energy transfer (TR-FRET) assay utilizing homogenous time resolved fluorescence (HTRF) technology. PI3Kβ, a complex of N-terminal histidine-tagged recombinant full-length human p110β and untagged recombinant full length human p85α were coexpressed in a Baculovirus infected Sf21 cell expression system. (GenBank Accession No. for p110β, NM—006219; for p85α, XM—043865) The proteins are purified by one-step affinity chromatography using glutathione-agarose. A competition assay was performed to measure the amount of PIP3 generated from PIP2 in the presence of purified recombinant PI3 Kbeta (p110β/p85α). PI3Kβ was incubated with 10 μM PIP2 substrate in the reaction buffer (20 mM HEPES, pH 7.5, 10 mM NaCl, 4 mM MgCl2, 2 mM DTT, 10 μM ATP and 1% DMSO) for 30 minutes at 30° C. The reaction product was then mixed with a PIP3 detector protein, europium-labeled antibody, biotin-labeled PIP3 probe and allophycocyanin-labeled Streptavidin. A sensor complex is formed to generate a stable TR-FRET signal in the reaction mixture. This signal intensity decrease as biotin-labeled probe binding to the PIP3 detector is displaced by PIP3 produced by enzymatic activity and the amount of unbound biotin-labeled PIP3 probe in the mixture increases. TR-FRET signal was determined using microplate reader with background subtraction.

HCT-118 cells = assay: Cell proliferation assay Method A (ATPlite), HCT-118; type: cell-based; conditions: 72 hours, read-out: antiproliferative activity IC50, HCT-118
Procedure: as §1

Sk-Mel-28 cells = assay: Cell proliferation assay Method A (ATPlite), Sk-Mel-28; type: cell-based; conditions: Homo sapiens, 72 hours, read-out: antiproliferative activity IC50, Sk-Mel-28
Procedure: as §1

MDA-MB-468 cells = assay: Cell proliferation assay Method B, MDA-MB-468; type: cell-based; conditions: Homo sapiens, Breast, Method B, 72 hours, read-out: antiproliferative activity IC50, MDA-MB-468
Procedure: (§2) Cancer cell lines were plated at 5,000 to 10,000 per well in 96-well flat bottomed plates with various concentration of compounds. The cells were incubated with compounds for 72 hours in the presence of 0.5% of fetal bovine serum. Growth inhibition was accessed by adenosine triphosphate (ATP) content assay using Promega CellTiter-Glo kit. Promega CellTiter-Glo kit is an ATP monitoring system based on firefly luciferase. Briefly, 16 μl of mammalian cell lysis and substrate solution was added to 84 μl of culture medium per well to lyse the cells and stabilize the ATP. The mixture was shaken and incubated for 30 minutes and subsequently the luminescence was measured.

[1] = system: HDACs (HeLa cell nuclear extracts); assay: HDAC enzymatic activity, Biomol Color de Lys system; type: biochemical
Procedure, shortened: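 HeLa nuclear extract as HDAC source with Color de Lys substrate in 50 mM Tris/Cl pH 8.0, 137 mM NaCl, 2.7 mM KCl, 1 mM MgCl2. Serially diluted compounds reacted 1 h at 25 °C, then developer added; fluorescence (Ex 350–380/Em 440–460) fitted sigmoidally for IC50.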

HCT116 cells = assay: Cell proliferation assay Method B, HCT116; type: cell-based; conditions: Homo sapiens, HCT-116, Colon, 72 hours, read-out: antiproliferative activity IC50, HCT116
Procedure: as §2

OPM-2 cells = assay: Cell proliferation assay Method B, OPM-2; type: cell-based; conditions: Homo sapiens, Multiple Myeloma, 72 hours, read-out: antiproliferative activity IC50, OPM-2
Procedure: as §2

SW1990 cells = assay: Cell proliferation assay Method B, SW1990; type: cell-based; conditions: Homo sapiens, Pancreas, 72 hours, read-out: antiproliferative activity IC50, SW1990
Procedure: as §2

MiaPaca1 cells = assay: Cell proliferation assay Method B, MiaPaca1; type: cell-based; conditions: Pancreas, 72 hours, read-out: antiproliferative activity IC50, MiaPaca1
Procedure: as §2

PANC-1 cells = assay: Cell proliferation assay Method B, PANC-1; type: cell-based; conditions: Homo sapiens, Pancreas, 72 hours, read-out: antiproliferative activity IC50, PANC-1
Procedure: as §2

T1 sequence (P42338 whole entry): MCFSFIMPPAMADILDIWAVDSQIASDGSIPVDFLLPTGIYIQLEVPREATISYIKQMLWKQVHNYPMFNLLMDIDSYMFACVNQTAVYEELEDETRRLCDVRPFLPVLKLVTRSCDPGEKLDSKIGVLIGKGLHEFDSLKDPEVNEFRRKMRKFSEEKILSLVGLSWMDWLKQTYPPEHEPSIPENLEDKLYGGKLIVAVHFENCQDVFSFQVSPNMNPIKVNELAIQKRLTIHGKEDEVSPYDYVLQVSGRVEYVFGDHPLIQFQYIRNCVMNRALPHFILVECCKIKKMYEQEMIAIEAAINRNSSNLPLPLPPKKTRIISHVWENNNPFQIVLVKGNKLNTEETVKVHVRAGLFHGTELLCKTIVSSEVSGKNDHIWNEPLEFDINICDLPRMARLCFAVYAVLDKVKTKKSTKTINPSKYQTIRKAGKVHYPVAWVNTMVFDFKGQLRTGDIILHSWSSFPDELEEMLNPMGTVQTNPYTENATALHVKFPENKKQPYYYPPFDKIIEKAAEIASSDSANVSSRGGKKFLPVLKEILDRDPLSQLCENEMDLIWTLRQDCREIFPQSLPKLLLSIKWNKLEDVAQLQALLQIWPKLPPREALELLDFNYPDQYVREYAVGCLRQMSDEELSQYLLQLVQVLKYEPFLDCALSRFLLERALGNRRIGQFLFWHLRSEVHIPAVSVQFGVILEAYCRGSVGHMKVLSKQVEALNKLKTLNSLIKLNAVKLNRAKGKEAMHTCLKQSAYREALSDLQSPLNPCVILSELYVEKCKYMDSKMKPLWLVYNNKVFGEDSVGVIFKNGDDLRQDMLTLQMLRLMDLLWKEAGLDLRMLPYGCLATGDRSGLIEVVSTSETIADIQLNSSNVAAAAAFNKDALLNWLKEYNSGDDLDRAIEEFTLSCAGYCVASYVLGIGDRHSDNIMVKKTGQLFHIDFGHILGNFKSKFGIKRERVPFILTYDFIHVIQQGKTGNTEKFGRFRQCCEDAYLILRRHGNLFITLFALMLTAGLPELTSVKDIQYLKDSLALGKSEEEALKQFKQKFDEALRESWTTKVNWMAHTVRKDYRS
T1 sequence (P27986 whole entry partner): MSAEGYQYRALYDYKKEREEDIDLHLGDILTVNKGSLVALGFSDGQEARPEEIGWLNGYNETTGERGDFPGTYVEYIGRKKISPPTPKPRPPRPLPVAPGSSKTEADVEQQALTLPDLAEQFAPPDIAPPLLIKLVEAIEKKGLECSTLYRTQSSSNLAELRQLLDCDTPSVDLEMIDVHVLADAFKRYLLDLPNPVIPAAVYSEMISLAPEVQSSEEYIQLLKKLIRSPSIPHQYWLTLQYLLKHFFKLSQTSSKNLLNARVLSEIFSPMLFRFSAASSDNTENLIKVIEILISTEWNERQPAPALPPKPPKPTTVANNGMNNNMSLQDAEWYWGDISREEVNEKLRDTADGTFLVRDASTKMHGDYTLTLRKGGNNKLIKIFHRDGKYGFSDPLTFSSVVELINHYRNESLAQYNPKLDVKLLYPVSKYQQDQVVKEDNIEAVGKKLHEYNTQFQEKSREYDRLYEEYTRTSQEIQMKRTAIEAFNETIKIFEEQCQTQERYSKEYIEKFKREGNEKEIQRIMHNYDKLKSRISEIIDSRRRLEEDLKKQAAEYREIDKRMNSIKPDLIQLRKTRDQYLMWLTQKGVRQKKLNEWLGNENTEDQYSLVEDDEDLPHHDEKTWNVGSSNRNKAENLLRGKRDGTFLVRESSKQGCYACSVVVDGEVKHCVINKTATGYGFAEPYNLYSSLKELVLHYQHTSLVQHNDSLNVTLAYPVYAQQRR

IC50 (BT-474 cells) [nM]	IC50 (PI3Kβ (p110β/p85α)) [nM]	IC50 (HCT-118 cells) [nM]	IC50 (MDA-MB-468 cells) [nM]	IC50 [1] [nM]	Structure (SMILES)	IC50 (Sk-Mel-28 cells) [nM]	IC50 (HCT116 cells) [nM]	IC50 (OPM-2 cells) [nM]	IC50 (SW1990 cells) [nM]	IC50 (MiaPaca1 cells) [nM]	IC50 (PANC-1 cells) [nM]
< 100	< 100	< 100	10 to 100	< 100	CN(Cc1cc2nc(-c3ccc(N)cc3)nc(N3CCOCC3)c2s1)c1ncc(C(=O)NO)cn1 [Compound 150, 2-(((2-(4-aminophenyl)-4-morpholinothieno[3,2-d]pyrimidin-6-yl)methyl)(methyl)amino)-N-hydroxypyrimidine-5-carboxamide]	< 100	–	–	–	–	–
–	–	–	–	–	CS(=O)(=O)N1CCN(Cc2cc3nc(-c4cccc5[nH]ncc45)nc(N4CCOCC4)c3s2)CC1 [GDC-0941, reference compound]	–	1000 to 10000	100 to 1000	> 10000	> 10000	1000 to 10000
